Data set [1] in a line: Phase Ib DDI study: plasma PK of darolutamide and keto-darolutamide at steady state in combination with ipatasertib. As to conditions: male, human, plasma, oral. On the procedure:
This was an open-label, multicenter, Phase Ib study designed to assess the safety, tolerability, and the drug–drug interaction of the combined administration of 400 mg QD oral ipatasertib and 600 mg BID oral darolutamide. […] For this study, no prospective calculations of the statistical power were made; the sample size selected was based on a typical sample size used for DDI studies. […] Figure 1 presents an overview of the study design.
Plasma concentrations of ipatasertib and its metabolite M1 were determined using a previously reported, validated liquid chromatography–tandem mass spectrometry assay (LC-MS/MS). The lower and upper limit of the quantitation for ipatasertib and M1 was 0.500 ng/mL and 400 ng/mL, respectively. Stable labeled internal standards were used for both analytes. Plasma concentrations of darolutamide and keto-darolutamide were determined by a validated bioanalytical assay using supported liquid extraction and LC-MS/MS detection by Labcorp Early Drug Development Laboratories Inc. (Madison, WI, USA). […] The diastereomers of darolutamide, (S, R)-darolutamide, and (S, S)-darolutamide, were quantified as one entity from a single chromatographic peak. The MS/MS transitions monitored for detection were m/z 399.2 to 178.1 for darolutamide, m/z 397.1 to 136.0 for keto-darolutamide, and 478.2 to 221.0 for the internal standard apalutamide. […]

The conditions of data set [2]: darolutamide with itraconazole; cited from earlier work.
The conditions of data set [3]: compared with enzalutamide and apalutamide; cited from earlier work.
A further data set relates to CYP3A4. The conditions noted are these: concomitant administration of darolutamide and midazolam; cited from earlier work.
The conditions of data set [4]: cited from earlier work.
The mark [5] stands for this setting: single-agent darolutamide from the literature, geometric mean (%CV).

The Tmax is the time at which the peak concentration occurs. As for `CC(O)c1cc(C(=O)N[C@@H](C)Cn2ccc(-c3ccc(C#N)c(Cl)c3)n2)[nH]n1` (stereo partly drawn) [Darolutamide], in data set [1], the Tmax was found to be 4.23 h. In addition, in data set [2], the “increase in AUC0–∞ when combined with itraconazole” value was 1.7 fold and the “increase in Cmax when combined with itraconazole” value is on record as 1.4 fold. The “penetration of the blood–brain barrier” value in data set [3] is on record as “lower penetration of the blood–brain barrier”. In addition, in the data set on CYP3A4, the “reduction of midazolam exposures” value was ~ 29%. Also, in data set [4] (600 mg BID), the “time to steady state” value was 2 to 5 days. Moreover, the “increase in bioavailability when administered with food” value in data set [4] is 2.0- to 2.5 fold. The “effective t1/2” value in data set [4] (in patients) is on record as “approximately 20 h”. For the same compound, the “time at which Cmax is reached” value in data set [4] (single 600 mg oral dose) is on record as “approximately 4 h”. In addition, in data set [4] (setting [5]), the “AUC0–t,ss” value is 52.82 (33.9) h·µg/mL and the “Cmax,ss” value is 4.79 (30.9) µg/mL. Besides, the “AUC0–12 h,ss” value in data set [4] (single-agent darolutamide) is 52.82 µg·h/mL.
